Measurements as given in patent US20100183692A1, “COMPOSITIONS” (priority 2007, published 2010).
“Also recorded” adds a separate entry of the source.

Columns and labels:
Type in all cases: cell-based
[1] = tested on: Aspergillus niger ATCC 16404 spores; experiment: Sporicidal effect of a) and b) compounds in a cosmetic cream; settings: for Reduction factor: cosmetic cream
Procedure: A preservative-free cosmetic cream for application to the human skin is used (Cremor basalis, Fagron GmbH, Barsbüttel, Germany).
Test samples of cream contain different amounts of compounds a) and b) added to an aliquot of 10 g of the cream in 50 ml tubes to give a concentration (w/w) of 0.125-0.25% as shown in the table below. After addition of the compounds a) and b), the cream is thoroughly mixed to achieve a homogeneous distribution.
After 1-3 days of equilibration of the cream (storage at room temperature to achieve a homogenous partitioning of compounds between oil and water phase), to each sample 100 μl of a spore suspension of Aspergillus niger ATCC 16404 containing 3×10^7 spores/ml (prepared as described in example 1) is added. After regular test intervals (7 days), samples of 1 g cream are removed and added to 20 ml of a neutralizer solution containing 0.2% lecithin, 2% Tween 80 and 0.5% NaCl. These dilutions are vigorously shaken for 10 min until the cream is dissolved, and then aliquots of this solution are spread plated on potato dextrose agar containing 0.2% Tween 80. After a sufficient time for colonies to grow (about 48 h), the number of colony forming units (and therefore surviving spores in the cream) are counted.

[2] = tested on: Aspergillus niger ATCC 16404 spores; experiment: Sporicidal effect of test compounds in water; settings: for Spores/ml / Reduction factor: 0.1% test compound in water, after 7 days; for Reduction factor: count of negative control divided by count of test compound; for Reduction of spore counts / sporicidal effect in water (in words): 0.1% test compound, 7 days
Procedure: The reduction factor is determined by growing a suitable test organism (Aspergillus niger for fungi, Pseudomonas aeruginosa for gram-negative bacteria and Staphylococcus aureus for gram-positive bacteria) on a suitable culture medium on agar plates, harvesting and adding to a personal care product composition in a density of 3×10^5 organism/ml and counting the surviving organisms in the probe and a negative control at defined time interval, commonly 7 days. The count of the negative control is divided by the count of the probe and thereby the reduction factor is determined (compare example 1).
Aspergillus niger ATCC 16404 spores are added to water to obtain a density of 3×10^5 spores 1 ml. In order to prepare the spores, the test strain is grown for 5 days on potato dextrose agar at room temperature. The spores are harvested with a solution containing 0.1% Tween 80, peptone 0.1% and NaCl 0.85% and the spore concentration is adjusted to the density indicated above.
Test compounds are dissolved in dipropyleneglycol to a concentration of 20%.
These stock solutions are added to 10 ml aliquots of the spore suspension to obtain a final concentration of the test compounds of 0.1%. The sporicidal effect is shown by a reduction of spore counts after 7 days.
The reduction factor is determined as follows. Aliquots of the above prepared suspension of microorganisms (here: spore suspension prepared as described above) are plated on a suitable agar medium (see above) and the developing colonies are counted both for samples with test compound and for a negative probe (water). The count of the negative control is divided by the count of the test compound and thereby the reduction factor is determined. A negative control (water) accordingly has a reduction factor of 1 (no effect on the microorganism).

[3] = tested on: Staphylococcus aureus (DSMZ 799) and Pseudomonas aeruginosa (ATCC 15442), mixed 1:1; experiment: Bactericidal effect of a) and b) compounds in a cosmetic cream
Procedure: Test samples of the same cream used in Example 2 contain different amounts of compounds a) and b) added to an aliquot of 10 g of the cream in 50 ml tubes to give a concentration (w/w) of 0.125-0.25% as shown in the table below. After addition of the compounds a) and b), the cream is thoroughly mixed to achieve a homogeneous distribution.
As test organisms Staphylococcus aureus (DSMZ 799) and Pseudomonas aeruginosa (ATCC 15442) are used. The strains are grown overnight in Mueller-Hinton broth and adjusted to a cell density of 1×10^8 cfu (colony forming units) per ml.
The two bacterial strains are mixed in a ratio of 1:1 and 100 μl of this mixed inoculum is added to 10 ml aliquots of the cosmetic cream.
The resulting mixtures are incubated at room temperature and at the regular intervals samples are removed, suspended in neutralizer solution and diluted as described above (example 2).
Aliquots of these suspended and diluted samples are plated on tryptic soy agar supplemented with 0.5% Tween 80 and then incubated for 24 h at 37° C. Surviving bacteria are counted.

[4] = fragrant acid (sodium salt) 0.125% w/w, 4-HBA 0, after 7 days
[5] = fragrant acid (sodium salt) 0.250% w/w, 4-HBA 0, after 7 days
[6] = fragrant acid (sodium salt) 0.125% w/w, 4-HBA 0, after 24 h
[7] = fragrant acid (sodium salt) 0.250% w/w, 4-HBA 0, after 24 h

Row | Compound | Sporicidal activity in cream (in words) ([1]; combined with cinnamic acid or anisic acid in cream at 0.125% concentration, within 7 days) | Reduction factor ([1]; no fragrant acid, 4-HBA 0.125% w/w, after 7 days) | Spores/ml [2] | Reduction factor [2] | Reduction of spore counts / sporicidal effect in water (in words) [2] | Reduction factor ([3]; no fragrant acid, 4-HBA 0.125% w/w, bacterial counts after 24 h) | Reduction factor [1, 4] | Reduction factor [1, 5] | Reduction factor [3, 6] | Reduction factor [3, 7]
1 | O=Cc1ccc(O)cc1 [4-hydroxybenzaldehyde] | complete killing of spores | 5.5 | >1.2 × 10^5 Spores/ml | <2 | no significant sporicidal effect; also recorded: No significant reduction of spore counts | 10 | – | – | – | –
2 | COc1ccc(C=O)cc1 [4-methoxy-benzaldehyde, 4-methoxybenzaldehyde] | – | – | 4.68 × 10^4 Spores/ml | 5 | No significant reduction of spore counts | – | – | – | – | –
3 | COc1ccc(C(=O)O)cc1 [Anisic acid, anisic acid] | – | – | – | – | – | – | 1.4 | 12.5 | 1 | 5
4 | O=C(O)/C=C/c1ccccc1 [Cinnamic acid, cinnamic acid] | – | – | – | – | – | – | 1.0 | 1.1 | 2.0 | 10
